Converted amounts (≈) assume the structure as drawn. Numbered stars: 1 amine (or outer) side, 2 acyl side, 3 side chain; on linkers, the order of the positions; unused ones are H or OH. Square brackets hold non-standard residues; d marks the D form. Peptide text beside a SMILES is read from it. X1 = O=C([C@@H](C[C@H](O)CCl)O[*:1])[*:2]; dLac(3-vinyl) = C=CC[C@@H](O)C(=O)O; NMeV = CN[C@H](C(=O)O)C(C)C; NMeA = CN[C@@H](C)C(=O)O; βAla = NCCC(=O)O
Columns and labels:
[1] = test system: brine shrimp (Artemia salina); assay: Brine-shrimp lethality; type: in vivo; settings: for LD50, lethality against brine shrimp: colchicine as positive control; for lethal rate against brine shrimp: at a concentration of 100 μg/mL
Procedure: The brine-shrimp (Artemia salina) lethality of the isolated compounds was determined as previously described. Colchicine was used as a positive control.

[2] = test system: P. aeruginosa; assay: Antimicrobial assay (disk diffusion and double dilution methods); type: cell-based; settings: Pseudomonas aeruginosa; chloramphenicol as positive control; read-out: MIC against P. aeruginosa
Excerpt: The antibacterial activities against E. coli, S. aureus, P. aeruginosa, V. alginolyticus, V. anguillarum, and E. tarda along with the antifungal activities against P. piricola, A. brassicae, C. gloeosporioides, and C. fusarium were investigated using the disk diffusion and double dilution methods as previously described. Chloramphenicol and amphotericin B were used as positive controls for the antibacterial and antifungal bioassays, respectively.

## CC[C@H](C)[C@@H]1CC(=O)NCC(=O)N[C@@H](C(C)C)C(=O)N[C@H](CC(C)C)C(=O)N[C@@H](C)C(=O)N[C@@H](C)C(=O)O1 [Compound 1, iso-isariin D]
[1]
  LD50, lethality against brine shrimp: 26.58 μΜ

## C[C@@H]1CC2=C(CO1)C(=O)[C@@](C)(O)[C@H](O)C2 [Compound 2, felinone A]
[1]
  lethal rate against brine shrimp: 61.4%

## C=CC[C@H]1OC(=O)CCNC(=O)[C@H](C)N(C)C(=O)[C@H](C(C)C)N(C)C(=O)[C@H]([C@@H](C)CC)NC(=O)[C@@H]2CCCN2C1=O [Compound 4, destruxin A] (cyclo([dLac(3-vinyl)]PI[NMeV][NMeA][βAla]))
[1]
  LD50, lethality against brine shrimp: 5.34 μΜ

## CC[C@H](C)[C@@H]1NC(=O)[C@@H]2CCCN2C(=O)[C@@H](C[C@H](O)CCl)OC(=O)CCNC(=O)[C@H](C)N(C)C(=O)[C@H](C(C)C)N(C)C1=O [Compound 6, destruxin E chlorohydrin] (cyclo([X1]PI[NMeV][NMeA][βAla]))
[1]
  LD50, lethality against brine shrimp: 2.16 μΜ

## O=C(N[C@H](CO)[C@H](O)c1ccc([N+](=O)[O-])cc1)C(Cl)Cl [chloramphenicol]
[2]
  MIC: 4 µg/mL (≈ 12.4 µM)

## COc1cc2c(c(OC)c1OC)-c1ccc(OC)c(=O)cc1[C@@H](NC(C)=O)CC2 [colchicine, reference compound]
[1]
  LD50, lethality against brine shrimp: 88.4 μΜ

## felinone B [Compound 3]
[1]
  lethal rate against brine shrimp: 59.6%

Reference: PMC4052318, “Cyclodepsipeptides and Other O-Containing Heterocyclic Metabolites from Beauveria felina EN-135, a Marine-Derived Entomopathogenic Fungus” (Marine Drugs, 2014)
